Results as given in patent publication US20260008750A1, “COMPOUNDS, COMPOSITIONS, AND METHODS FOR REDUCING PRODUCTION OF TRIMETHYLAMINE” (The Cleveland Clinic Foundation, priority 2022, published 2026).
Structures can show the parent of a compound that is named as a salt.

biological target: recombinant CutC/D (choline TMA lyase) (Proteus mirabilis, UniProt B4EYG1); test: Choline TMA lyase enzymatic activity assay (d9-choline to d9-TMA) in clarified lysate; assay type: biochemical, P. mirabilis; settings: clarified lysate 5 mg/mL of E. coli expressing cutC/cutD; 300 μM d9-choline; 2 hours at 22° C.; d9-TMA by mass spectrometry
Sequence (B4EYG1 1-1142): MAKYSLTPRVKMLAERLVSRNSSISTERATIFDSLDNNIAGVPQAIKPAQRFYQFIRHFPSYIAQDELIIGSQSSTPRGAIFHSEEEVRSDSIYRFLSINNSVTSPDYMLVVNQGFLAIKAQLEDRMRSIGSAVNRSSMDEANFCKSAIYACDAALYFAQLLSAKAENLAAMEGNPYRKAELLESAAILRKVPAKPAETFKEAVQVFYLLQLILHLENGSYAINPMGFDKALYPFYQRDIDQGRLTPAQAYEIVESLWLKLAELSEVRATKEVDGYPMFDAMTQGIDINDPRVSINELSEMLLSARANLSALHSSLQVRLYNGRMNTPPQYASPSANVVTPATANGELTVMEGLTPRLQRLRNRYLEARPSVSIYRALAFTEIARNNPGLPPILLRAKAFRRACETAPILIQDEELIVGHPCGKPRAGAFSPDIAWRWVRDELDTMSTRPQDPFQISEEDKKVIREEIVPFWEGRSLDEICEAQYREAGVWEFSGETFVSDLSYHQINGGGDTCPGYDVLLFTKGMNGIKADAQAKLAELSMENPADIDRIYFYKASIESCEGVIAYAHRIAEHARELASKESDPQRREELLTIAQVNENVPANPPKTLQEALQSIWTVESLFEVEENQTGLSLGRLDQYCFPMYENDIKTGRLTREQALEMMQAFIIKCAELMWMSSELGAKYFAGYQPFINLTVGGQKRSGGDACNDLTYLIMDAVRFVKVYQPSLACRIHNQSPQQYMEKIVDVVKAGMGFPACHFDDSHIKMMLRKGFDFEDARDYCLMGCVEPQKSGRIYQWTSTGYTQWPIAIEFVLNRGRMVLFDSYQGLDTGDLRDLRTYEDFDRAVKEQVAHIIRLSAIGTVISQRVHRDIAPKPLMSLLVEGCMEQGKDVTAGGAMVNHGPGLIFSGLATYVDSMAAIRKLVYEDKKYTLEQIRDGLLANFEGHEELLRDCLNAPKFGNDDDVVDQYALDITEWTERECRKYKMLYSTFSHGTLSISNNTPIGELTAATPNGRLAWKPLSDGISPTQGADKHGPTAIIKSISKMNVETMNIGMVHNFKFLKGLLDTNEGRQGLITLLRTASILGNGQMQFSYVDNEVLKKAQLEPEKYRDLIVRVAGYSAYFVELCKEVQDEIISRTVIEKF
Description: Full-length, recombinant CutC/D was expressed through the use of competent E. coli cells transformed with the expression plasmids encoding for the cutC and cutD genes from P. mirabilis as described (Wang Z et al., Cell 2015 Dec. 17; 163(7):1585-95). CutC/D over-expressing cells were grown in nutrient-rich LB medium with the addition of ampicillin (100 μg/mL). The cell pellets were kept on ice and re-suspended in the lysis buffer: 200 mM HEPES, 50 mM NaCl, 10 mM MgCl2, pH 8.0. Clarified lysate was aliquoted and flash frozen for storage at −80° C. until use.
Choline TMA lyase enzymatic activity assays were conducted to measure the conversion of isotope-labeled do-choline to do-TMA. Upon thawing an aliquot of frozen clarified lysate on ice and gentle mixing, clarified lysate was diluted to 5 mg/mL in lysis buffer and the necessary co-factors were added (final concentration: 1 mM SAM, 10 mM NaDT, and 2 mM NADH). Potential inhibitor compounds (typically dissolved in H2O) were serially diluted (10-fold) and added to individual reaction mixtures (done in triplicate). The mixture was then allowed to incubate for at least 15 minutes at 22° C. before the addition of substrate (300 μM final do-choline) to initiate the reaction, which was carried out for 2 hours at room temperature (22° C.) in the dark in gas tight sealed reaction vials. The reactions were quenched with the addition of 200 μL of 1 M NaOH and 0.5 μM of the internal standard ([^13C3^15N1]TMA), vortexing and placement in ice. d9-TMA production was quantified using mass spectrometry by measuring the peak area ratio of the precursor to product ion transition of d9-TMA (m/z 69→49) to the internal standard [^13C3^15N1]TMA (m/z 64→47).

SMILES | IC50
C[N+](C)(CF)CCOC(=O)CN [Compound 1, 2-(2-Aminoacetoxy)-N-(fluoromethyl)-N,N-dimethylethanaminium dibromide] | 3.2 nM
CC(C)[C@H](N)C(=O)OCC[N+](C)(C)CF [Compound 2, (S)-2-((2-Amino-3-methylbutanoyl)oxy)-N-(fluoromethyl)-N,N-dimethylethanaminium dibromide] | 52 nM
C[C@H](N)C(=O)OCC[N+](C)(C)CF [Compound 3, (S)-2-((2-Aminopropanoyl)oxy)-N-(fluoromethyl)-N,N-dimethylethanaminium dibromide] | 31 nM
C[N+](C)(CF)CCOC(=O)[C@@H]1CCCN1 [Compound 5, N-(fluoromethyl)-N,N-dimethyl-2-(prolyloxy)ethan-1-aminium chloride hydrochloride] | 6.5 nM
C[N+](C)(CF)CCOC(=O)[C@@H](N)Cc1ccccc1 [Compound 6, 2-((L-phenylalanyl)oxy)-N-(fluoromethyl)-N,N-dimethylethan-1-aminium dibromide] | 18 nM
